Laboratory results as given in ChEMBL document CHEMBL4038282 (Eur J Med Chem, 2017).

Tests used:
MDA-MB-231 [1] = assay: Antiproliferative activity against human MDA-MB-231 cells up to 72 hrs by MTT assay; format: functional, cell-based; conditions: MDA-MB-231, 72 h
MDA-MB-231 [2] = assay: Potency index, ratio of curcumin IC50 to compound IC50 for human MDA-MB-231 cells; format: functional
HCT-116 = assay: Antiproliferative activity against human HCT116 cells up to 72 hrs by MTT assay; format: functional, cell-based; conditions: HCT-116, 72 h
PC-3 = assay: Antiproliferative activity against human PC3 cells up to 72 hrs by MTT assay; format: functional, cell-based; conditions: PC-3, 72 h
MDA-MB-468 [3] = assay: Antiproliferative activity against doxorubicin-resistant human MDA-MB-468 cells after 24 hrs by MTT assay; format: functional, cell-based; conditions: MDA-MB-468, 24 h
MDA-MB-468 [4] = assay: Potency index, ratio of curcumin IC50 to compound IC50 for doxorubicin-resistant human MDA-MB-468 cells; format: functional
Mus musculus [5] = assay: Acute-toxicity in nu/nu mouse assessed as changes in body weight at 500 mg/kg, po administered once daily for 5 days measured for 21 days; format: organism-based; conditions: in vivo, 504 h
Mus musculus [6] = assay: Acute-toxicity in nu/nu mouse assessed as behavioral changes at 500 mg/kg, po administered once daily for 5 days measured for 21 days; format: organism-based; conditions: in vivo, 504 h

IC50 (MDA-MB-231 [1]) [µM]	IC50 (HCT-116) [µM]	IC50 (PC-3) [µM]	Structure (SMILES)	Ratio IC50 (MDA-MB-231 [2])	IC50 (MDA-MB-468 [3]) [µM]	Ratio IC50 (MDA-MB-468 [4])	Activity (Mus musculus [5])	Activity (Mus musculus [6])
4.66	11.4	12.5	CCC(CO)(CO)C(=O)Oc1ccc(/C=C/C(=O)/C=C(O)/C=C/c2ccc(O)c(OC)c2)cc1OC	2.4 - 12.2	–	–	–	–
2.7	–	–	COc1ccc(/C=C/C(=O)C(C)(C)C(=O)/C=C/c2ccc(OC)c(OC(=O)C(C)(CO)CO)c2)cc1OC(=O)C(C)(CO)CO	2.4 - 12.2	–	–	–	–
2.11	3.88	7.28	COc1cc(/C=C/C(=O)C(Cc2ccccc2)(Cc2ccccc2)C(=O)/C=C/c2ccc(OC(=O)C(C)(CO)CO)c(OC)c2)ccc1OC(=O)C(C)(CO)CO	2.4 - 12.2	–	–	–	–
2.55	4.77	7.64	COc1ccc(/C=C/C(O)=C/C(=O)/C=C/c2ccc(OC(=O)C(C)(CO)CO)c(OC)c2)cc1OC	2.4 - 12.2	–	–	–	–
4.61	2.79	4.74	COc1ccc(/C=C/C(=O)/C=C(O)/C=C/c2ccc(OC)c(OC(=O)C(C)(CO)CO)c2)cc1OC(=O)C(C)(CO)CO	3.5	–	–	–	–
1.78	1.74	2.16	CCC(CC)(C(=O)/C=C/c1ccc(OC(=O)C(C)(CO)CO)c(OC)c1)C(=O)/C=C/c1ccc(OC(=O)C(C)(CO)CO)c(OC)c1	2.4 - 12.2	–	–	–	–
1.33	–	5.22	CC(CO)(CO)C(=O)Oc1ccc(/C=C/C(=O)/C=C(O)/C=C/c2ccc(O)cc2)cc1	12	–	–	–	–

Structure (SMILES)	IC50 (MDA-MB-231 [1]) [µM]	IC50 (HCT-116) [µM]	IC50 (PC-3) [µM]	Ratio IC50 (MDA-MB-231 [2])	IC50 (MDA-MB-468 [3]) [µM]	Ratio IC50 (MDA-MB-468 [4])	Activity (Mus musculus [5])	Activity (Mus musculus [6])
COc1cc(/C=C/C(=O)C(C)(C)C(=O)/C=C/c2ccc(OC(=O)C(C)(CO)CO)c(OC)c2)ccc1OC(=O)C(C)(CO)CO	1.98	1.65	1.76	2.4 - 12.2	5.71	10	Non-Toxic	Non-Toxic
